The text below walks through data of patent publication US20150011566A1, “N-PHENYLPIPERAZINE DERIVATIVES THAT ARE ANTAGONISTS OF A1A, A1D ADRENOCEPTORS AND 5-HT1A RECEPTORS FOR THE TREATMENT OF BENIGN PROSTATE HYPERPLASIA, PHARMACEUTICAL COMPOSITIONS CONTAINING THE SAME” (UNIVERSIDADE FEDERAL DO RIO DE JANEIRO-UFRJ, priority 2012, published 2015).

Like-named read-outs stand apart in the source and are kept apart here. Marks after values point to notes of the source that are not given here.

The target in one assay is T1, α1D receptors (Homo sapiens, UniProt P25100).
T1 construct: endogenous in cells; host or cells: DU-145
T1 sequence (P25100 1-572): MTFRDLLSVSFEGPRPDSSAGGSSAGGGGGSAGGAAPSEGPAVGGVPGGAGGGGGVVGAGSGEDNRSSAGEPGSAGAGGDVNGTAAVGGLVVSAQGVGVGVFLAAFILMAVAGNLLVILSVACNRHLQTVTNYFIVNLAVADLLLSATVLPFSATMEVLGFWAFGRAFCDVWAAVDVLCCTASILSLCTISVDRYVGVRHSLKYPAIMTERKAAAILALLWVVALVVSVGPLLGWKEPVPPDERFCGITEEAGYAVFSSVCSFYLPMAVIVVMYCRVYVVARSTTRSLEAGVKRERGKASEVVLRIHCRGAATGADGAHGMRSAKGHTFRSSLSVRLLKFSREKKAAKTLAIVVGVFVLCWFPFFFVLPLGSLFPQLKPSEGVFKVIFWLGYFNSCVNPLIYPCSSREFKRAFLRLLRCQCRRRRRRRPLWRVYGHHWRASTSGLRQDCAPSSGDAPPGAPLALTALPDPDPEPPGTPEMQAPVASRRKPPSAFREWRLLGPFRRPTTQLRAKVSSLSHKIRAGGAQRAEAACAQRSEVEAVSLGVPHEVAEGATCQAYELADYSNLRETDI
As to the kind of experiment: Cell proliferation in vitro, DU-145 cells stimulated with phenylephrine (MTT). The assay is classed as cell-based. As to conditions: for Proliferation percentage in relation to basel (100%) in the presence of LDT's, α1D: 48 h; for inhibition of the effect of the α1D receptors stimulus on proliferation: LDT3 50 nM, LDT66 20 nM. The procedure:
(§1) Human prostate cancer cells (DU-145) were cultured in medium (RPMI 1640) until confluence. Then the cells were dissociated, plated (5×10^3 cells/well) and maintained in medium free of fetal bovine serum for 24 hours. […] Cell proliferation was assessed by using the MTT technique (MOSMANN, T. Immunol Methods. 16; 65 (1-2):55-63, 1983).

The target of a further assay is muscarinic receptors. The assay is classed as binding, rat. The note with it: Table 14; for Ki: Cheng-Prusoff.
A further assay deals with T2, α2A receptors (Rattus norvegicus, UniProt P22909).
T2 construct: from tissue; host or cells: rat cortex membranes
T2 sequence (P22909 1-465): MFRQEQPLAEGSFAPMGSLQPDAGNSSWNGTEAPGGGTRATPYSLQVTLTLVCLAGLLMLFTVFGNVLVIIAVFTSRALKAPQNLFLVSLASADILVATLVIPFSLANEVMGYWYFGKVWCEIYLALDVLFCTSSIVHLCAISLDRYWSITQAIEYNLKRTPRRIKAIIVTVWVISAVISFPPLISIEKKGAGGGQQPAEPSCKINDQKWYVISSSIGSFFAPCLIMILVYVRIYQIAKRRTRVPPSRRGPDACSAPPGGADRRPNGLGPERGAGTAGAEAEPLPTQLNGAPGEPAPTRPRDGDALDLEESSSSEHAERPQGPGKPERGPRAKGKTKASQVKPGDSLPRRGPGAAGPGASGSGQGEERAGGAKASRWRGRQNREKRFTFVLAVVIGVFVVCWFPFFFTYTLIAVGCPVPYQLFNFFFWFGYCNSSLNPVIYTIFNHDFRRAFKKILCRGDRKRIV
In words: Binding of [3H]RX821002 to α2A receptors (rat cortex membranes). The procedure:
Membrane preparations of rat cortex as described previously in the literature were performed. The organs were homogenized in a Potter with the aid of a motor unit (Fisatom) and Teflon piston in the proportion of 20 parts of 50 mM Tris HCl (pH 7.4 at 4° C.) for one piece of material, three times for 30 seconds each time, at intervals the solution was allowed to stand on ice for 1 minute.
Then it was performed a centrifugation at 900×g for 10 minutes at 4° C. It was obtained a […] which was resuspended in solution cold 50 mM Tris-HCl (pH 7.4) and the same procedure was performed once more. The supernatant was then centrifuged at 48,000×g for 10 minutes at 4° C. yielding a pellet which was resuspended at a ratio of 20 parts of 50 mM Tris HCl (pH 7.4 at 4° C.) for one piece of material, and incubated at 37° C. for 10 minutes in order to remove the endogenous neurotransmitters. Finally, centrifugation two times more at 48,000×g was performed for 10 minutes at 4° C., and then the final pellet was resuspended in a solution of 50 mM Tris-HCl (pH 7.4).
Binding assays for the α2A receptor were performed as described previously in the literature and previously standardized in the laboratory by saturation experiments. […] Incubate for 60 minutes at 30° C., 150 membrane preparation of rat cortex contained 50 μL was suspended in 50 mM Tris-HCl into tubes containing 400 μL intermediate solution ([3H] RX821002 1.25 nM, 50 mM Tris (pH 7.4 at 37° C.) and 50 μL of different concentrations of LDT's (final concentration 10^−7-3×10^−5 M to LDT65-68) or 50 μL of 50 mM Tris-HCl pH 7.4 at 37° C. (solvent for dilution of the LDT's), to determine the total binding or 50 μL nonradioactive bitartrate adrenaline at 100 μM for determining the non-specific bounding (final volume 500 μL). Assays were performed in triplicate.
After the incubation period, the reaction was stopped by adding 4 mL ice cold solution containing 5 mM Tris (pH 7.4), followed by vacuum filtration on glass fiber filter (GMF 3, Filtrak®) previously soaked with solution 0.5% polyethylenoimine. The filters were washed three times with 4 mL of ice-cold solution containing 5 mM Tris (pH 7.4) under vacuum to remove all free radioligand. Then the filters were dried and placed in vials containing 5 ml scintillation fluid (composition: 4% PPO, 0.1% POPOP w/v in toluene). The radioactivity retained on the filters was then determined in a liquid scintillation counter (Packard Tri-Carb 1600 TR). Specific binding of [3H]RX821002 to a2A receptors was defined as the difference between total binding and non-specific binding. To these receptors were determined and IC50 and Ki parameters.

Another assay addresses T3, 5-HT1A receptors (Homo sapiens, UniProt P08908).
T3 construct: endogenous in cells; host or cells: DU-145
T3 sequence (P08908 1-422): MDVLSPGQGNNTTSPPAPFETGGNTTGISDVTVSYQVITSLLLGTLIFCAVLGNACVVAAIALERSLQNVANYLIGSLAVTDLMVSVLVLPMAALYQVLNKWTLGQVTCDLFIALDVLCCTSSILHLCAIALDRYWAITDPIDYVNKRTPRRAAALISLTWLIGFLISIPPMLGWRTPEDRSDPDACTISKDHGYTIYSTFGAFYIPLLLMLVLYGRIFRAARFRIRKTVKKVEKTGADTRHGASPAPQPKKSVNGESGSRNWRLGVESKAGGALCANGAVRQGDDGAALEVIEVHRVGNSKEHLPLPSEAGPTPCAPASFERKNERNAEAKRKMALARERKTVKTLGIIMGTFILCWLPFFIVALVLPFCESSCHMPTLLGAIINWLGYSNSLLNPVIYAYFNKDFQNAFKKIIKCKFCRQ
As to the kind of experiment: Cell proliferation in vitro, DU-145 cells stimulated with 5-HT (MTT). The assay is classed as cell-based. The note with it: for Proliferation percentage in relation to basel (100%) in the presence of LDT's, 5HT1A: 48 h; for inhibition of the effect of the 5-HT1A receptors stimulus on proliferation: LDT3 50 nM, LDT66 20 nM. The procedure:
as §1

Where [1] appears, read: Table 12, Cheng-Prusoff, read-out: Ki.
The mark [2] stands for this setting: Table 12, read-out: -log IC50 (converted).
Setting [3] is: DU-145, 5-HT 1 μM + test substance 50 nM.
Setting [4] is: DU-145, phenylephrine 3 μM + test substance 50 nM.
The mark [5] stands for this setting: Table 6, Cheng-Prusoff, read-out: Ki.

For the compound `COc1cccc(CCN2CCN(c3ccccc3OC)CC2)c1` [LDT 3], on α1D receptors (DU-145, phenylephrine 3 μM + test substance 500 nM), the “Proliferation percentage in relation to basel (100%) in the presence of LDT's, α1D” value was 99.2 ± 5.8^a %. In addition, at α1D receptors, the “inhibition of the effect of the α1D receptors stimulus on proliferation” value was “inhibited the effect”. In addition, at muscarinic receptors, the “-log 1050 (M)” value worked out at 4.26 ± 0.07 M. The Ki (in general, a measure of affinity in units of concentration, obtained from inhibition or displacement) is 56700 nM at muscarinic receptors and 930 nM at α2A receptors (setting [1]). On α2A receptors (setting [2]), the IC50 (usually the concentration at which inhibition is half-maximal) was 1100 nM. In addition, the “Proliferation percentage in relation to basel (100%) in the presence of LDT's, 5HT1A” value on 5-HT1A receptors (setting [3]) was 96.9 ± 5.8^b %. Besides, at 5-HT1A receptors, the “inhibition of the effect of the 5-HT1A receptors stimulus on proliferation” value is given as “inhibited the effect”.
For `COc1ccc(CCN2CCN(c3ccccc3OC)CC2)cc1OC` [LDT 5], the “Proliferation percentage in relation to basel (100%) in the presence of LDT's, α1D” value on α1D receptors (setting [4]) is 117.3 ± 8.9%. Moreover, on muscarinic receptors, the “-log 1050 (M)” value is 3.97 ± 0.06 M and the affinity, expressed as Ki, was 108000 nM. At α2A receptors, this compound had a concentration for half-maximal inhibition (IC50) of 295 nM and an inhibition constant Ki of 240 nM. Also, at 5-HT1A receptors (setting [3]), the “Proliferation percentage in relation to basel (100%) in the presence of LDT's, 5HT1A” value turned out to be 118.8 ± 9.9%.
`CCOc1ccccc1N1CCN(CCc2ccc3c(c2)OCO3)CC1` [LDT 8]: at α1D receptors (DU-145, phenylephrine 3 μM + test substance 5 nM), the “Proliferation percentage in relation to basel (100%) in the presence of LDT's, α1D” value worked out at 124.05 ± 9.6%. For the same compound, at muscarinic receptors, the “-log 1050 (M)” value worked out at 4.48 ± 0.07 M and the affinity, expressed as Ki, was 33900 nM. For the same compound, the Ki on α2A receptors (setting [1]) is 550 nM. Further, at α2A receptors (setting [2]), the IC50 is 603 nM. Moreover, on 5-HT1A receptors (DU-145, 5-HT 1 μM + test substance 5 nM), the “Proliferation percentage in relation to basel (100%) in the presence of LDT's, 5HT1A” value is on record as 138.4 ± 42.9%.
In the case of `CCCCCN1CCN(c2ccccc2OC)CC1` [LDT 65], on muscarinic receptors, the “-log 1050 (M)” value stood at 3.3 ± 0.08 M and the Ki worked out at 172000 nM. At α2A receptors, this compound showed an IC50 of 2510 nM and a Ki of 1500 nM.
With `CCCCCCN1CCN(c2ccccc2OC)CC1` [LDT 66], the “Proliferation percentage in relation to basel (100%) in the presence of LDT's, α1D” value at α1D receptors (setting [4]) is listed as 76 ± 7.7^a %. Also, the “inhibition of the effect of the α1D receptors stimulus on proliferation” value against α1D receptors is “inhibited the effect”. On muscarinic receptors, the “-log 1050 (M)” value was found to be 3.8 ± 0.08 M and the inhibition constant Ki was determined as 54200 nM. Further, on α2A receptors (Table 6), the “log IC50 (M)” value is −5.92 ± 0.06 M. For the same compound, at α2A receptors (setting [5]), the Ki stood at 800 nM. In addition, the “Proliferation percentage in relation to basel (100%) in the presence of LDT's, 5HT1A” value on 5-HT1A receptors (setting [3]) is reported as 110.8 ± 7.7^b %. On 5-HT1A receptors, the “inhibition of the effect of the 5-HT1A receptors stimulus on proliferation” value is given as “inhibited the effect”.
For the compound `CCCCCCCN1CCN(c2ccccc2OC)CC1` [LDT 67], on muscarinic receptors, the “-log 1050 (M)” value came to 4.2 ± 0.02 M and the Ki is 21000 nM. For the same compound, at α2A receptors (Table 6), the “log IC50 (M)” value is −6.10 ± 0.06 M. In addition, the Ki on α2A receptors (setting [5]) is 500 nM.
The corresponding values for `CCCCCCCCN1CCN(c2ccccc2OC)CC1` [LDT 68] are 4.5 ± 0.05 M, 10800 nM, −6.01 ± 0.03 M and 600 nM.
On α2A receptors, `CCOc1ccccc1N1CCN(CCc2ccc(OC)c(OC)c2)CC1` [LDT 245] gave a concentration for half-maximal inhibition (IC50) of 2000 nM and an inhibition constant Ki of 160 nM.
